Data as given in patent EP0610377B1, “TRI-SUBSTITUTED TETRAHYDROFURAN ANTIFUNGALS” (SCHERING CORPORATION, priority 1991, dated 1993).

Columns and labels:
C. albicans C-65 = experiment: Candida systemic model in normal and compromised CF1 mice infected with C. albicans C-65, oral treatment; type: in vivo; details: for CFUs (GM): geometric mean of the logarithms of CFU in the kidneys
Procedure: The compounds of Examples 23-26 and itraconazole, fluconazole, and saperconazole were tested for in vivo oral antifungal activity in a Candida systemic model using CF1 male mice , average weight 20 g, Harlan Sprague Dawley, Inc., Indianapolis, Ind. infected by IV injection into the tail vein of C. albicans C-43 (5 million CFUs). The drugs were dissolved in polyethylene glycol-200 (PEG-200) and tested by orally administering 50, 25 and 10 mpk of each drug 4 hours post infection and once daily for 3 more days. Oral efficacy was measured after four (4) days by percent survival and by the number of organisms remaining in the kidneys i.e., the Colony Forming Units (CFUs). The mice were sacrificed and the kidneys of individual mice were homogenized in sterile saline, diluted and spread onto Mycosel agar. Colony counts were determined after 48 hours at 37°C. For calculation of geometric means, mice that died during the experiment were considered to have 10^9 CFUs/kidneys (based on numerous previous experiments).
The compounds of Examples 23-24 and itraconazole, fluconazole, were tested for in vivo oral antifungal anctivity in a Candida systemic model using normal and compromised CF1 mice infected with C. albicans C-65 (5 million CFUs). The procedure of Example 33 was followed. The drugs were dissolved in polyethylene glycol-200 ("PEG-200) at room temperature and tested by orally administering 100, 50, 25, 10 and 1 mpk of each drug. Oral efficacy was measured by percent survival and by the number of organisms remaining in the kidneys (CFUs) after four days. […] The pharmaceutical composition of the preferred compound of formula IIb of Eample 24 in hydroxypropyl beta cyclodextrin ("HPβCD") having 7.4 hydroxypropyl groups per HPβCD (obtained from Pharmatec, Inc., Alachua, FL 32615) was prepared by admixing the appropriate amount of the compound IIa with a 40% (w/v) solution of HPβCD (4 g of HPβCD per 10 mL of purified water). Gentle heating was used to form a clear solution. For the 10 mpk dose, 12 mg of Ha was added to 6 mL of a 40% w/v solution of HPβCD. For dilutions, sterile water was added to the solution with mixing. The pharmaceutical composition of itraconazole and the Pharmatec HPβCD described above was prepared as follows. Propylene glycol (10 mL) was admixed with 0.95 mL of concentrated HCI at 40°-45°C with stirring. Itraconazole (2.5 g) was added thereto and stirring was continued until homogeneous. The mixture so formed was cooled to 20° to 30°C and admixed with a solution of 60 g of HPβCD in 40 mL of purified water to form a clear solution. The pH was adjusted to a value of 1.9-2.1 with 10N NaOH and sufficient purified water added (with mixing) to a final volume of 100 mL. For dilutions, sterile water was added to the itraconazole - HPβCD.

Candida = Candida vaginal infection in a hamster model; type: in vivo; details: result in words
[1] = 600 Rads Mice (compromised), 10 MPK PO in PEG-200, 1/day x 4 days, day 4 post-infection
[2] = 600 Rads Mice (compromised), 10 MPK PO in PEG-200, day 4
[3] = 600 Rads Mice (compromised), 25 MPK PO in PEG-200, 1/day x 4 days, day 4 post-infection
[4] = 600 Rads Mice (compromised), 25 MPK PO in PEG-200, day 4
[5] = 600 Rads Mice (compromised), 50 MPK PO in PEG-200, 1/day x 4 days, day 4 post-infection
[6] = 600 Rads Mice (compromised), 50 MPK PO in PEG-200, day 4
[7] = 600 Rads Mice (compromised), 100 MPK PO in PEG-200, 1/day x 4 days, day 4 post-infection
[8] = 600 Rads Mice (compromised), 100 MPK PO in PEG-200, day 4
[9] = Normal Mice, 1 MPK PO in PEG-200, 1/day x 4 days, day 4 post-infection
[10] = Normal Mice, 1 MPK PO in PEG-200, day 4
[11] = Normal Mice, 10 MPK PO in PEG-200, 1/day x 4 days, day 4 post-infection
[12] = Normal Mice, 10 MPK PO in PEG-200, day 4
[13] = Normal Mice, 25 MPK PO in PEG-200, 1/day x 4 days, day 4 post-infection
[14] = Normal Mice, 25 MPK PO in PEG-200, day 4
[15] = Normal Mice, 50 MPK PO in PEG-200, 1/day x 4 days, day 4 post-infection
[16] = Normal Mice, 50 MPK PO in PEG-200, day 4

Row | Compound | % S (Percent Survival) (C. albicans C-65; [1]) [%] | CFUs (GM) (C. albicans C-65; [2]) | % S (Percent Survival) (C. albicans C-65; [3]) [%] | CFUs (GM) (C. albicans C-65; [4]) | % S (Percent Survival) (C. albicans C-65; [5]) [%] | CFUs (GM) (C. albicans C-65; [6]) | % S (Percent Survival) (C. albicans C-65; [7]) [%] | CFUs (GM) (C. albicans C-65; [8]) | % S (Percent Survival) (C. albicans C-65; [9]) [%] | CFUs (GM) (C. albicans C-65; [10]) | % S (Percent Survival) (C. albicans C-65; [11]) [%] | CFUs (GM) (C. albicans C-65; [12]) | % S (Percent Survival) (C. albicans C-65; [13]) [%] | CFUs (GM) (C. albicans C-65; [14]) | % S (Percent Survival) (C. albicans C-65; [15]) [%] | CFUs (GM) (C. albicans C-65; [16]) | also measured
1 | CCC(C)n1ncn(-c2ccc(N3CCN(c4ccc(OCC5COC(Cn6cncn6)(c6ccc(Cl)cc6Cl)O5)cc4)CC3)cc2)c1=O (centres unmarked) [Itraconazole, reference compound] | 0 | 9.00 | 0 | 9.00 | 0 | 9.00 | 20 | 8.45 | 0 | 900 | 30 | 7.64 | 50 | 6.93 | 60 | 5.98 | % S (Percent Survival) (C. albicans C-65; 600 Rads Mice (compromised), 10 MPK PO in Beta-CD-H, 1/day x 4 days, day 4): 30%; CFUs (GM) (C. albicans C-65; 600 Rads Mice (compromised), 10 MPK PO in Beta-CD-H, day 4): 8.11; % S (Percent Survival) (C. albicans C-65; 600 Rads Mice (compromised), 25 MPK PO in Beta-CD-H, 1/day x 4 days, day 4): 60%; CFUs (GM) (C. albicans C-65; 600 Rads Mice (compromised), 25 MPK PO in Beta-CD-H, day 4): 7.98; % S (Percent Survival) (C. albicans C-65; Normal Mice, 10 MPK PO in Beta-CD-H (HPβCD vehicle for itraconazole), 1/day x 4 days, day 4): 0%; CFUs (GM) (C. albicans C-65; Normal Mice, 10 MPK PO in Beta-CD-H, day 4): 9.00; % S (Percent Survival) (C. albicans C-65; Normal Mice, 25 MPK PO in Beta-CD-H (HPβCD vehicle for itraconazole), 1/day x 4 days, day 4): 100%; CFUs (GM) (C. albicans C-65; Normal Mice, 25 MPK PO in Beta-CD-H, day 4): 6.19
2 | CC[C@H](C)n1ncn(-c2ccc(N3CCN(c4ccc(OC[C@@H]5CO[C@@](Cn6cncn6)(c6ccc(F)cc6F)C5)cc4)CC3)cc2)c1=O [Example 24, (-)-[(5R)-cis]-4-[4-[4-[4-[[5-(2,4-Difluorophenyl)-5-(1H-1,2,4-triazol-1-ylmethyl)tetrahydrofuran-3-yl]methoxy]phenyl]-1-piperazinyl]phenyl]-2,4-dihydro-2-[(1S)-(1-methylpropyl)]-3H-1,2,4-triazol-3-one] | 0 | 9.00 | 20 | 8.27 | 30 | 7.58 | 80 | 6.28 | 30 | 7.73 | 40 | 7.48 | 90 | 4.67 | 100 | 4.44 | activity against a Candida vaginal infection compared with itraconazole and saperconazole (Candida): more active; % S (Percent Survival) (C. albicans C-65; 600 Rads Mice (compromised), 10 MPK PO in Beta-CD, 1/day x 4 days, day 4): 30%; CFUs (GM) (C. albicans C-65; 600 Rads Mice (compromised), 10 MPK PO in Beta-CD, day 4): 7.88; % S (Percent Survival) (C. albicans C-65; Normal Mice, 1 MPK PO in Beta-CD (hydroxypropyl-beta-cyclodextrin), 1/day x 4 days, day 4): 70%; CFUs (GM) (C. albicans C-65; Normal Mice, 1 MPK PO in Beta-CD, day 4): 5.97; % S (Percent Survival) (C. albicans C-65; Normal Mice, 10 MPK PO in Beta-CD (hydroxypropyl-beta-cyclodextrin), 1/day x 4 days, day 4): 100%; CFUs (GM) (C. albicans C-65; Normal Mice, 10 MPK PO in Beta-CD, day 4): 4.94; oral activity in the Candida systemic model compared with itraconazole (C. albicans C-65; doses of 50 and 25 mpk, each drug dissolved in PEG-200, result in words): more active orally; activity against systemic candidiasis compared with itraconazole and saperconazole (C. albicans C-65; normal and compromised mice, result in words (text refers to Tables II and V)): more active
3 | CC[C@@H](C)n1ncn(-c2ccc(N3CCN(c4ccc(OC[C@@H]5CO[C@@](Cn6cncn6)(c6ccc(F)cc6F)C5)cc4)CC3)cc2)c1=O [Example 23] | 0 | 9.00 | 20 | 8.65 | 30 | 7.33 | 50 | 6.43 | 0 | 9.00 | 30 | 7.12 | 60 | 5.74 | 90 | 4.69 | –
